From US20250136570A1 (Tango Therapeutics, Inc., priority 2021, published 2025)

What was measured:
[1] = molecular target: Recombinant HDAC1 (Homo sapiens (Human), UniProt Q13547); test: HDAC1 inhibition, Fluor de Lys fluorescent enzyme assay; assay type: biochemical; details: 3 hours pre-incubation at room temp; 6 nM enzyme; 16 μM Fluor de Lys substrate; duplicate
Text: (§1) Recombinant HDAC1 (cat #: 50051) and HDAC3/NCor2 (cat #: 50003) enzymes were purchased from BPS Bioscience (San Diego, CA, US). Assay reagents for the detection of HDAC enzyme activity (Fluor de Lys®—Green substrate and Developer kits) were purchased from Enzo Life Science (Farmingdale, NY, US). Plates used to conduct the enzyme reaction were Proxiplate-384 (cat #: 6008280) Plus from PerkinElmer (Waltham, MA, US). TSA, an HDAC inhibitor, was purchased from Enzo Life Science (cat #BML-GR309-9090) The remainder of the reagents used to prepare the assay buffer were purchased from Sigma-Aldrich (St Louis, MO, US). Unless stated otherwise, HDAC1 and 3 assays were conducted in 50 mM Tris buffer, pH 8, 137 mM NaCl, 2.7 mM KCl, 0.01% BSA.
(§2) IC50 determination for HDAC1 and HDAC3—Prior to adding reagents, 50 nL/well of compound were added to Proxiplates using an Echo dispenser instrument (Beckman Coulter, CA, US). After addition of compound, 2.5 μL/well of 2× enzyme solution was added and the enzyme was pre-incubated with compound for 3 hours at room temp. (˜22° C.). After the pre-incubation period, the enzyme reaction was initiated by adding 2.5 μL/well of 2× Fluor de Lys® substrate solution. The assay reaction was stopped after one hour by adding 5 μl/well of a 0.66× Developer solution containing TSA (3.2 μM). The final product of the enzyme reaction was read using a Spectramax plate reader instrument (Molecular Devices, CA, US) using a fluorescent readout (Ex 360 nm/Em 460 nm). The final enzyme concentrations in the assay buffer for HDAC1 and 3 were 6 and 1.2 nM, respectively. The final Fluor de Lys® substrate concentration in the assay buffer was 16 μM for all HDAC enzymes. IC50 values were determined using the following equation: […]
(§3) Where Efree and Eo are the free and total amount of HDAC enzyme in the reaction mixture, n is the hill coefficient, I is the free inhibitor concentration, and IC50 is the measure of the potency equivalent to the inhibitor concentration that leads to a 50% occupancy of the total enzyme. Each data was generated in duplicate.

[2] = molecular target: HDAC3/NCor2 (Homo sapiens (Human), UniProt O15379); test: HDAC3 inhibition, Fluor de Lys fluorescent enzyme assay; assay type: biochemical; details: 3 hours pre-incubation at room temp; 1.2 nM enzyme; 16 μM Fluor de Lys substrate; duplicate
HDAC3/NCor2, sequence (O15379 whole entry): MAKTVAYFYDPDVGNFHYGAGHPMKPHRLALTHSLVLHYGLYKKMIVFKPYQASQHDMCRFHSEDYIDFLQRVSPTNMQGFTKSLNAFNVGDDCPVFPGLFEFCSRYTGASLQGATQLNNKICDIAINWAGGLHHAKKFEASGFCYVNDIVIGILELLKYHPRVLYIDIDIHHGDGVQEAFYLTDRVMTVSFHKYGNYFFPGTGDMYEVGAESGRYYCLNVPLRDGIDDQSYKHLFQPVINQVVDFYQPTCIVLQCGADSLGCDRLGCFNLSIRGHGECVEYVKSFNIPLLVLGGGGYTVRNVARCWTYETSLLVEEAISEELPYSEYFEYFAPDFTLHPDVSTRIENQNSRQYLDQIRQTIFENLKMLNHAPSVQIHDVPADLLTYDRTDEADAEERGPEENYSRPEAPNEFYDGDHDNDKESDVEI
HDAC3/NCor2, sequence (Q9Y618 395-489 partner): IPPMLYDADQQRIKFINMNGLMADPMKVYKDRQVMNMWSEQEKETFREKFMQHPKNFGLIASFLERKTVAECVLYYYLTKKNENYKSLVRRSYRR
Text: as §1, §2, §3

Recombinant HDAC1, sequence (Q13547 whole entry): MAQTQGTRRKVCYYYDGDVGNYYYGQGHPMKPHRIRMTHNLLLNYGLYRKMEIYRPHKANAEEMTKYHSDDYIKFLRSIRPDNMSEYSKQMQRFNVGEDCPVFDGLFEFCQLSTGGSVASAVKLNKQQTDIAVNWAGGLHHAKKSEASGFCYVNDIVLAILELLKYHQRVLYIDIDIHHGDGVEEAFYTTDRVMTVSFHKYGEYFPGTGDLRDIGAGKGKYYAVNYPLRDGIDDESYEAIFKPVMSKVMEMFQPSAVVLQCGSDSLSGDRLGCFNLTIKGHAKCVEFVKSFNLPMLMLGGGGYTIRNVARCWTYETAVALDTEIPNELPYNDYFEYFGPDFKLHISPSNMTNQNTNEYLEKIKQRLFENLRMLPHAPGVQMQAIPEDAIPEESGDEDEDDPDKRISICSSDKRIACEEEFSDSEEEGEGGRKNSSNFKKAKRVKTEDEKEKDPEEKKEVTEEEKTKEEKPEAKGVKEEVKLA

SMILES	IC50 [1]	IC50 [2]
CS(=N)(=O)c1ccc(C(=O)Nc2cc(C#CC3CC3)ccc2N)cc1 (stereo not drawn) [Compound 155, N-[2-amino-5-(2-cyclopropylethynyl)phenyl]-4-(methylsulfonimidoyl)benzamide]	> 2000 nM	> 2000 nM
Cc1ncc(-c2ccc(N)c(NC(=O)c3ccc(S(C)(=N)=O)cc3)c2)s1 (stereo not drawn) [Compound 156, N-[2-amino-5-(2-methylthiazol-5-yl)phenyl]-4-(methylsulfonimidoyl)benzamide]	100 to 500 nM	> 2000 nM
CS(=N)(=O)c1ccc(C(=O)Nc2cc(-c3cccnn3)ccc2N)cc1 (stereo not drawn) [Compound 157, N-(2-amino-5-pyridazin-3-yl-phenyl)-4-(methylsulfonimidoyl)benzamide]	< 100 nM	> 2000 nM
CS(=N)(=O)c1ccc(C(=O)Nc2cc(-c3ncccn3)ccc2N)cc1 (stereo not drawn) [Compound 158, N-(2-amino-5-pyrimidin-2-yl-phenyl)-4-(methylsulfonimidoyl)benzamide]	500 to 2000 nM	> 2000 nM
CS(=N)(=O)c1ccc(C(=O)Nc2cc(-c3ccc(F)cc3)ccc2N)s1 (stereo not drawn) [Compound 161, N-[2-amino-5-(4-fluorophenyl)phenyl]-5-(methylsulfonimidoyl)thiophene-2-carboxamide]	< 100 nM	100 to 500 nM
CS(=N)(=O)Cc1ccc(C(=O)Nc2cc(-c3ccc(F)cc3)ccc2N)cc1 (stereo not drawn) [Compound 162, N-[2-amino-5-(4-fluorophenyl)phenyl]-4-[(methylsulfonimidoyl)methyl]benzamide]	< 100 nM	500 to 2000 nM
CS(=O)(=NC1CC1)c1ccc(C(=O)Nc2cc(-c3ccc(F)cc3)ccc2N)cc1 (stereo not drawn) [Compound 163, N-[2-amino-5-(4-fluorophenyl)phenyl]-4-(N-cyclopropyl-S-methyl-sulfonimidoyl)benzamide]	< 100 nM	100 to 500 nM
CS(=N)(=O)Cc1ccc2sc(C(=O)Nc3cc(-c4ccc(F)cc4)ccc3N)cc2c1 (stereo not drawn) [Compound 167, N-[2-amino-5-(4-fluorophenyl)phenyl]-5-[(methylsulfonimidoyl)methyl]benzothiophene-2-carboxamide]	< 100 nM	500 to 2000 nM
CS(=N)(=O)Cc1ccc2oc(C(=O)Nc3cc(-c4ccc(F)cc4)ccc3N)cc2c1 (stereo not drawn) [Compound 170, N-[2-amino-5-(4-fluorophenyl)phenyl]-5-[(methylsulfonimidoyl)methyl]benzofuran-2-carboxamide]	< 100 nM	500 to 2000 nM
CS(=N)(=O)c1ccc2oc(C(=O)Nc3cc(-c4ccc(F)cc4)ccc3N)cc2c1 (stereo not drawn) [Compound 171, N-(4-amino-4′-fluoro-[1,1′-biphenyl]-3-yl)-5-(S-methylsulfonimidoyl)benzofuran-2-carboxamide]	< 100 nM	100 to 500 nM
N=S(=O)(c1ccc(C(=O)Nc2cc(-c3ccc(F)cc3)ccc2N)cc1)c1cccnn1 (stereo not drawn) [Compound 174, N-[2-amino-5-(4-fluorophenyl)phenyl]-4-(pyridazin-3-ylsulfonimidoyl)benzamide]	< 100 nM	500 to 2000 nM
N=S(=O)(c1ccccn1)c1ccc(C(=O)Nc2cc(-c3ccc(F)cc3)ccc2N)cn1 (stereo not drawn) [Compound 175, N-[2-amino-5-(4-fluorophenyl)phenyl]-6-(2-pyridylsulfonimidoyl)pyridine-3-carboxamide]	< 100 nM	500 to 2000 nM
CS(=N)(=O)c1ccc(C(=O)Nc2cc(-c3ccc(C(N)=O)s3)ccc2N)cc1 (stereo not drawn) [Compound 176, 5-[4-amino-3-[[4-(methylsulfonimidoyl)benzoyl]amino]phenyl]thiophene-2-carboxamide]	> 2000 nM	> 2000 nM
N=S(=O)(c1ccc(C(=O)Nc2cc(-c3ccc(F)cc3)ccc2N)cc1)C(F)(F)F (stereo not drawn) [Compound 177, N-[2-amino-5-(4-fluorophenyl)phenyl]-4-(trifluoromethylsulfonimidoyl)benzamide]	< 100 nM	500 to 2000 nM
N=S(=O)(c1ccc(C(=O)Nc2cc(-c3ccc(F)cc3)ccc2N)cn1)C1CC1 (stereo not drawn) [Compound 179, N-[2-amino-5-(4-fluorophenyl)phenyl]-6-(cyclopropylsulfonimidoyl)pyridine-3-carboxamide]	< 100 nM	500 to 2000 nM
CS(=N)(=O)c1ccc(C(=O)Nc2cc(-c3cccc(C(N)=O)c3)ccc2N)cc1 (stereo not drawn) [Compound 180, 3-[4-amino-3-[[4-(methylsulfonimidoyl)benzoyl]amino]phenyl]benzamide]	< 100 nM	> 2000 nM
CS(=N)(=O)c1ccc(C(=O)Nc2cc(-c3ccc(Cl)cc3)ccc2N)cc1 (stereo not drawn) [Compound 182, N-[2-amino-5-(4-chlorophenyl)phenyl]-4-(methylsulfonimidoyl)benzamide]	< 100 nM	> 2000 nM
CS(=N)(=O)c1cc2ccc(C(=O)Nc3cc(-c4ccc(F)cc4)ccc3N)cc2o1 (stereo not drawn) [Compound 187, N-[2-amino-5-(4-fluorophenyl)phenyl]-2-(methylsulfonimidoyl)benzofuran-6-carboxamide]	< 100 nM	500 to 2000 nM
CS(=N)(=O)c1cnc(C(=O)Nc2cc(-c3ccc(F)cc3)ccc2N)s1 (stereo not drawn) [Compound 188, N-[2-amino-5-(4-fluorophenyl)phenyl]-5-(methylsulfonimidoyl)thiazole-2-carboxamide]	< 100 nM	500 to 2000 nM

Second part, the compound after the results:

IC50 [1]	IC50 [2]	SMILES
< 100 nM	100 to 500 nM	CS(=N)(=O)c1ccc(C(=O)Nc2cc(-c3ccc(F)cc3)ccc2N)nn1 (stereo not drawn) [Compound 159, N-[2-amino-5-(4-fluorophenyl)phenyl]-6-(methylsulfonimidoyl)pyridazine-3-carboxamide]
100 to 500 nM	500 to 2000 nM	CS(=N)(=O)c1ncc(C(=O)Nc2cc(-c3ccc(F)cc3)ccc2N)s1 (stereo not drawn) [Compound 164, N-[2-amino-5-(4-fluorophenyl)phenyl]-2-(methylsulfonimidoyl)thiazole-5-carboxamide]
< 100 nM	500 to 2000 nM	CCN=S(C)(=O)c1ccc(C(=O)Nc2cc(-c3ccc(F)cc3)ccc2N)cc1 (stereo not drawn) [Compound 165, N-[2-amino-5-(4-fluorophenyl)phenyl]-4-(N-ethyl-S-methyl-sulfonimidoyl)benzamide]
< 100 nM	500 to 2000 nM	N=S(=O)(c1ccc(C(=O)Nc2cc(-c3ccc(F)cc3)ccc2N)cc1)c1ccccn1 (stereo not drawn) [Compound 166, N-[2-amino-5-(4-fluorophenyl)phenyl]-4-(2-pyridylsulfonimidoyl)benzamide]
< 100 nM	500 to 2000 nM	N=S(=O)(c1ccncc1)c1ccc(C(=O)Nc2cc(-c3ccc(F)cc3)ccc2N)cc1 (stereo not drawn) [Compound 168, N-[2-amino-5-(4-fluorophenyl)phenyl]-4-(4-pyridylsulfonimidoyl)benzamide]
< 100 nM	500 to 2000 nM	CCN=S(C)(=O)c1ccc(C(=O)Nc2cc(-c3ccc(F)cc3)ccc2N)cn1 (stereo not drawn) [Compound 169, N-[2-amino-5-(4-fluorophenyl)phenyl]-6-(N-ethyl-S-methyl-sulfonimidoyl)pyridine-3-carboxamide]
< 100 nM	500 to 2000 nM	N=S(=O)(c1ccc(C(=O)Nc2cc(-c3ccc(F)cc3)ccc2N)cc1)c1cccnc1 (stereo not drawn) [Compound 172, N-[2-amino-5-(4-fluorophenyl)phenyl]-4-(3-pyridylsulfonimidoyl)benzamide]
< 100 nM	500 to 2000 nM	CS(=N)(=O)c1ccc2sc(C(=O)Nc3cc(-c4ccc(F)cc4)ccc3N)cc2c1 (stereo not drawn) [Compound 173, N-[2-amino-5-(4-fluorophenyl)phenyl]-5-(methylsulfonimidoyl)benzothiophene-2-carboxamide]
